{"source": "patent US4341893A", "about": "“Quinazoline derivatives” (Synthelabo, priority 1976, dated 1982)", "key": {"LD 50 rat (Table II)": {"experiment": "LD 50 rat (Table II)", "conditions": "in vivo"}, "[1]": {"system": "spontaneously hypertensive male rats (Okamoto strain)", "experiment": "Anti-hypertensive effect in spontaneously hypertensive rats, systolic pressure", "type": "in vivo", "conditions": "10 mg/kg perorally, spontaneously hypertensive rat", "procedure": "Experiments were carried out on spontaneously hypertensive male rats (Okamoto strain), which were at least 14 weeks old. The systolic pressure was measured according to the technique described by Gerold and Tschirky (Arzneim.-Forsch. 1968, 18, 1285). The compounds were administered orally at a dose of 1 or 10 mg/kg.\nTable II collects together the results obtained which are expressed in percent variation of the initial pressure, 2 hours, 4 hours and 24 hours after administration of the compound (I)."}}}
{"smiles": "COc1cc2nc(N3CCC(C(=O)c4nnc(SC)o4)CC3)nc(N)c2cc1OC", "note": "[Compound 7, 4-amino-6,7-dimethoxy-2-[4-(5-methylthio-1,3,4-oxadiazole-2-carbonyl)-piperidino]-quinazoline]", "values": [{"measurement": "LD50", "setting": "LD 50 rat (Table II); po, perorally", "result": "> 500", "unit": "mg/kg"}, {"measurement": "% variation of the pressure after 2 hours", "setting": "[1]", "result": -24, "unit": "%"}, {"measurement": "% variation of the pressure after 4 hours", "setting": "[1]", "result": -20, "unit": "%"}, {"measurement": "% variation of the pressure after 24 hours", "setting": "[1]", "result": -2, "unit": "%"}]}
{"smiles": "COc1cc2nc(NCCCN(C)C(=O)c3ccccc3)nc(N)c2cc1OC", "note": "[Compound 12, N1-(4-amino-6,7-dimethoxy-quinazolinyl-2)-N2-benzoyl-N2-methyl-propylenediamine]", "values": [{"measurement": "LD50", "setting": "LD 50 rat (Table II); ip / intraperitoneally", "result": "~400", "unit": "mg/kg"}, {"measurement": "% variation of the pressure after 2 hours", "setting": "[1]", "result": -31, "unit": "%"}, {"measurement": "% variation of the pressure after 4 hours", "setting": "[1]", "result": -23, "unit": "%"}]}
{"smiles": "COc1cc2nc(N3CCC(C(=O)c4ccccc4)CC3)nc(N)c2cc1OC", "note": "[Compound 2]", "values": [{"measurement": "LD50", "setting": "LD 50 rat (Table II); ip / intraperitoneally", "result": "> 500", "unit": "mg/kg"}, {"measurement": "% variation of the pressure after 2 hours", "setting": "[1]", "result": -43, "unit": "%"}, {"measurement": "% variation of the pressure after 4 hours", "setting": "[1]", "result": -32, "unit": "%"}, {"measurement": "% variation of the pressure after 24 hours", "setting": "[1]", "result": -40, "unit": "%"}]}
{"smiles": "COc1cc2nc(N3CCC(C(=O)c4cccs4)CC3)nc(N)c2cc1OC", "note": "[Compound 6]", "values": [{"measurement": "LD50", "setting": "LD 50 rat (Table II); ip / intraperitoneally", "result": "> 500", "unit": "mg/kg"}, {"measurement": "% variation of the pressure after 2 hours", "setting": "[1]", "result": -27, "unit": "%"}, {"measurement": "% variation of the pressure after 4 hours", "setting": "[1]", "result": -22, "unit": "%"}, {"measurement": "% variation of the pressure after 24 hours", "setting": "[1]", "result": -2, "unit": "%"}]}
{"smiles": "COc1cc2nc(N3CCC(C(=O)c4ccc5c(c4)OCO5)CC3)nc(N)c2cc1OC", "note": "[Compound 1, 4-Amino-6,7-dimethoxy-2-[4-(3,4-methylenedioxybenzoyl)piperidino]-quinazoline]", "values": [{"measurement": "LD50", "setting": "LD 50 rat (Table II); ip / intraperitoneally", "result": "> 500", "unit": "mg/kg"}, {"measurement": "% variation of the pressure after 2 hours", "setting": "[1]", "result": -30, "unit": "%"}, {"measurement": "% variation of the pressure after 4 hours", "setting": "[1]", "result": -32, "unit": "%"}, {"measurement": "% variation of the pressure after 24 hours", "setting": "[1]", "result": -37, "unit": "%"}]}
{"smiles": "COc1cccc(C(=O)C2CCN(c3nc(N)c4cc(OC)c(OC)cc4n3)CC2)c1", "note": "[Compound 3, 4-Amino-6,7-dimethoxy-2-[4-(3-methoxybenzoyl)-piperidino]-quinazoline]", "values": [{"measurement": "LD50", "setting": "LD 50 rat (Table II); ip / intraperitoneally", "result": "~500", "unit": "mg/kg"}, {"measurement": "% variation of the pressure after 2 hours", "setting": "[1]", "result": -32, "unit": "%"}, {"measurement": "% variation of the pressure after 4 hours", "setting": "[1]", "result": -23, "unit": "%"}]}
{"smiles": "COc1cc2nc(N(C)CCCN(C)C(=O)c3ccccc3)nc(N)c2cc1OC", "note": "[Compound 10, N1-(4-amino-6,7-dimethoxy-quinazolinyl-2)-N2-benzoyl-N1 N2-dimethyl-propylenediamine]", "values": [{"measurement": "LD50", "setting": "LD 50 rat (Table II); po, perorally", "result": "> 500", "unit": "mg/kg"}, {"measurement": "% variation of the pressure after 2 hours", "setting": "[1]", "result": -23, "unit": "%"}, {"measurement": "% variation of the pressure after 4 hours", "setting": "[1]", "result": -15, "unit": "%"}, {"measurement": "% variation of the pressure after 24 hours", "setting": "[1]", "result": -4, "unit": "%"}]}
